The source of these data is ChEMBL document CHEMBL2010750, “Penicillin inhibitors of purple acid phosphatase” (Bioorg Med Chem Lett, 2012).

The source made the active and inactive calls. The calls are words filed in the database; no cut-off is given here.

Assay [1] is filed under the species Sus scrofa. The assay can be described thus: Competitive inhibition of pig PAP using para-nitrophenol as substrate at pH 4.9 preincubated for 10 mins by UV-visible spectrophotometry.
The species entered for assay [2] is Sus scrofa. The assay can be described thus: Uncompetitive inhibition of pig PAP using para-nitrophenol as substrate at pH 4.9 preincubated for 10 mins by UV-visible spectrophotometry.

Compound `CC1(C)S[C@@H]2[C@H](NC(=O)c3ccc(C(=O)c4ccc(Cl)cc4)cc3)C(=O)N2[C@H]1C(=O)O` had a Kic in the assay listed under Sus scrofa [1] of 12 µM. Further, the Kiuc entry in the assay listed under Sus scrofa [2] is “inactive”.
On the same counts, the results for `CC1(C)S[C@@H]2[C@H](NC(=O)c3cccc(C(=O)N4CCCCC4)c3)C(=O)N2[C@H]1C(=O)O` are 241 µM and 491 µM.
In turn, `CC1(C)S[C@@H]2[C@H](NC(=O)c3ccc(C(=O)c4ccccc4Cl)cc3)C(=O)N2[C@H]1C(=O)O` registered a Kic in the assay filed under Sus scrofa [1] of 32 µM. Moreover, the Kiuc entry in the assay listed under Sus scrofa [2] was “inactive”.
Consider `CC1(C)S[C@@H]2[C@H](NC(=O)c3ccc(C(=O)c4ccccc4)cc3)C(=O)N2[C@H]1C(=O)O`, for which the Kic in the assay listed under Sus scrofa [1] was 26 µM. Also, the Kiuc result in the assay listed under Sus scrofa [2] is “inactive”.
Turning to `CC(=O)Oc1ccc(C(=O)N[C@@H]2C(=O)N3[C@@H]2SC(C)(C)[C@@H]3C(=O)O)cc1`, the Kic in the assay filed under Sus scrofa [1] amounted to 53 µM. The Kiuc entry in the assay listed under Sus scrofa [2] was “inactive”.
`CC1(C)S[C@@H]2[C@H](NC(=O)c3ccc(C(=O)c4ccc([N+](=O)[O-])cc4)cc3)C(=O)N2[C@H]1C(=O)O` displayed a Kic in the assay filed under Sus scrofa [1] of 17 µM. Besides, the Kiuc result in the assay listed under Sus scrofa [2] was “inactive”.
On the same counts, the results for `Cc1ccc(C(=O)c2cccc(C(=O)N[C@@H]3C(=O)N4[C@@H]3SC(C)(C)[C@@H]4C(=O)O)c2)cc1` are 60 µM and “inactive”.
In the case of `CC1(C)S[C@@H]2[C@H](NC(=O)c3ccc(C(=O)c4cccc([N+](=O)[O-])c4)cc3)C(=O)N2[C@H]1C(=O)O`, in the assay listed under Sus scrofa [1], the Kic was 23 µM. The Kiuc result in the assay filed under Sus scrofa [2] was “inactive”.
On to `CC1(C)S[C@@H]2[C@H](NC(=O)Cc3ccccc3)C(=O)N2[C@H]1C(=O)O`, for which the Kic result in the assay listed under Sus scrofa [1] is “inactive”. In the assay filed under Sus scrofa [2], the Kiuc entry is “inactive”.
